The results in this text go back to PubChem BioAssay AID1259411 (Chemical Carcinogenesis Research Information System (CCRIS), 2018).

The source made the active and inactive calls. No rule for the calls is given here.

In this series the test system is rodent carcinogenicity bioassays, tumor incidence. Briefly: CCRIS carcinogenicity studies. The method, boiled down: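 Archive of carcinogenicity, mutagenicity, tumor promotion and tumor inhibition results drawn from journals, NCI reports and other sources, expert-reviewed; covers 1985-2011 and is no longer updated.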

With `Clc1cc2c(c(Cl)c1Cl)Oc1c(Cl)c(Cl)c(Cl)c(Cl)c1O2`, the carcinogen call by setting is: (Species: RAT, Strain/Sex: SPRAGUE-DAWLEY/FEMALE (30), Route: ORAL, GAVAGE IN CORN OIL, Dose: 2.5 MG/KG BW PLUS 0.63 MG/KG 0N D 150, TOTAL DOSE 3.1 MG/KG (STUDY DURATION: LIFESPAN), Tumor Site: Type of Lesion: LIVER: CARCINOMA) “active; positive”; (Species: RAT, Strain/Sex: SPRAGUE-DAWLEY/FEMALE (30), Route: ORAL, GAVAGE IN CORN OIL, Dose: 2.5 MG/KG BW PLUS 0.63 MG/KG ON D 150, TOTAL DOSE 3.1 MG/KG (STUDY DURATION: LIFESPAN), Tumor Site: Type of Lesion: LUNG: CARCINOMA) “active; positive”; (Species: RAT, Strain/Sex: SPRAGUE-DAWLEY/FEMALE (30), Route: ORAL, GAVAGE IN CORN OIL, Dose: 2.8 MG/KG BW PLUS 0.086 MG/KG EVERY OTHER WK FOR LIFESPAN, TOTAL DOSE 4.6 MG/KG (STUDY DURATION: LIFESPAN), Tumor Site: Type of Lesion: LUNG: CARCINOMA) “active; positive”; (Species: RAT, Strain/Sex: SPRAGUE-DAWLEY/FEMALE, Route: ORAL, GAVAGE IN CORN OIL, Dose: 0, 1.0, 2.8, 3.1, 3.4, 3.8, 4.1 MG/KG BW ONCE (STUDY DURATION: LIFESPAN), Dose: 0, 1.0, 2.8, 3.1, 3.4, 3.8, 4.1 MG/KG BW ONCE (STUDY DURATION: LIFESPAN), Tumor Site: Type of Lesion: LIVER: CARCINOMA) “active; positive at higher doses”; (Species: RAT, Strain/Sex: SPRAGUE-DAWLEY/FEMALE, Route: ORAL, GAVAGE IN CORN OIL, Dose: 0, 1.0, 2.8, 3.1, 3.4, 3.8, 4.1 MG/KG BW ONCE (STUDY DURATION: LIFESPAN), Dose: 0, 1.0, 2.8, 3.1, 3.4, 3.8, 4.1 MG/KG BW ONCE (STUDY DURATION: LIFESPAN), Tumor Site: Type of Lesion: LUNG: CARCINOMA) “active; positive”.
For `Nc1ccc([N+](=O)[O-])cc1O`, the carcinogen call runs as follows: (Species: MOUSE, Strain/Sex: B6C3F1/FEMALE, Route: GAVAGE, Dose: 0, 400, 800 MG/KG IN CORN OIL 5D/WK FOR 103 WK (STUDY DURATION: 105 WK), Dose: 0, 400, 800 MG/KG IN CORN OIL 5D/WK FOR 103 WK (STUDY DURATION: 105 WK)) “inactive; negative”; (Species: MOUSE, Strain/Sex: B6C3F1/MALE, Route: GAVAGE, Dose: 0, 400, 800 MG/KG IN CORN OIL 5D/WK FOR 103 WK (STUDY DURATION: 105 WK), Dose: 0, 400, 800 MG/KG IN CORN OIL 5D/WK FOR 103 WK (STUDY DURATION: 105 WK)) “inactive; negative”; (Species: RAT, Strain/Sex: F344/FEMALE, Route: GAVAGE, Dose: 0, 100, 200 MG/KG IN CORN OIL 5D/WK FOR 103 WK (STUDY DURATION: 105 WK), Dose: 0, 100, 200 MG/KG IN CORN OIL 5D/WK FOR 103 WK (STUDY DURATION: 105 WK)) “inactive; negative”; (Species: RAT, Strain/Sex: F344/MALE, Route: GAVAGE, Dose: 0, 100, 200 MG/KG IN CORN OIL 5D/WK FOR 103 WK (STUDY DURATION: 105 WK), Dose: 0, 100, 200 MG/KG IN CORN OIL 5D/WK FOR 103 WK (STUDY DURATION: 105 WK), Tumor Site: Type of Lesion: PANCREAS: ACINAR CELL ADENOMA, PANCREAS: ACINAR CELL ADENOMA OR CARCINOMA) “active; positive”.
With `Oc1cc(Cl)ccc1Oc1ccc(Cl)cc1Cl`, the carcinogen call is, setting by setting: (Species: Hamster, Strain/Sex: Bio FID Alexander Syrian/Female (60/group), Route: Oral, Dose: 0, 12.5, 75, 250 mg/kg in diet for 90-95 wk, Dose: 0, 12.5, 75, 250 mg/kg in diet for 90-95 wk) “inactive; negative (study details not given in source; purity 99.5%)”; (Species: Hamster, Strain/Sex: Bio FID Alexander Syrian/Male (60/group), Route: Oral, Dose: 0, 12.5, 75, 250 mg/kg in diet for 90-95 wk, Dose: 0, 12.5, 75, 250 mg/kg in diet for 90-95 wk) “inactive; negative (study details not given in source; purity 99.5%)”; (Species: Rat, Strain/Sex: Sprague-Dawley/Female (60/group), Route: Oral, Dose: 0, 300, 1,200, 3,000 ppm in diet for 78 wk, Dose: 0, 300, 1,200, 3,000 ppm in diet for 78 wk) “inactive; negative (study details not given in source; purity 99%)”; (Species: Rat, Strain/Sex: Sprague-Dawley/Male (60/group), Route: Oral, Dose: 0, 300, 1,200, 3,000 ppm in diet for 78 wk, Dose: 0, 300, 1,200, 3,000 ppm in diet for 78 wk) “inactive; negative (study details not given in source; purity 99%)”.
For the molecule `Cc1cccc2c(C)c3c(ccc4ccccc43)c(C)c12`, the carcinogen call is “active; positive” (Species: MOUSE, Strain/Sex: C57BL/MALE,FEMALE, Route: DERMAL, Tumor Site: Type of Lesion: INTEGUMENTARY SYSTEM (SKIN): PAPILLOMA, EPITHELIOMA, SARCOMA); “active; positive” (Species: MOUSE, Strain/Sex: DBA/MALE,FEMALE, Route: DERMAL, Tumor Site: Type of Lesion: INTEGUMENTARY SYSTEM (SKIN): PAPILLOMA, EPITHELIOMA, SARCOMA); “active; positive” (Species: MOUSE, Strain/Sex: DBF1/MALE,FEMALE, Route: DERMAL, Tumor Site: Type of Lesion: INTEGUMENTARY SYSTEM (SKIN): PAPILLOMA, EPITHELIOMA, SARCOMA); “active; positive” (Species: RAT, Strain/Sex: LONG-EVANS/FEMALE, Route: INTRAVENOUS, Dose: 35 MG/KG, 0.5% IN DMSO DILUTED WITH COTTONSEED OIL-WATER EMULSION, 1/2 WK OR 1/10 D FOR 3-5 DOSES, Tumor Site: Type of Lesion: HEMATOPOIETIC SYSTEM (LEUKEMIA)); “active; positive” (Species: RAT, Strain/Sex: LONG-EVANS/MALE, Route: INTRAMUSCULAR, Dose: 2.5 MG IN 0.5 ML SESAME OIL ONCE, Tumor Site: Type of Lesion: INJECTION SITE: SARCOMA); “active; positive” (Species: RAT, Strain/Sex: LONG-EVANS/MALE, Route: INTRAVENOUS, Dose: 35 MG/KG, 0.5% IN DMSO DILUTED WITH COTTONSEED OIL-WATER EMULSION, 1/2 WK FOR 4 DOSES, Tumor Site: Type of Lesion: HEMATOPOIETIC SYSTEM (LEUKEMIA)).
Take `C/C=C(/C)C(=O)O[C@H]1CCN2CC=C(COC(=O)[C@@](O)([C@H](C)OC)C(C)(C)O)[C@H]12`: the carcinogen call (Species: RAT, Route: INTRAPERITONEAL, Tumor Site: Type of Lesion: INTESTINES, LIVER, INTEGUMENTARY SYSTEM (SKIN), Tumor Site: Type of Lesion: INTESTINES, LIVER, INTEGUMENTARY SYSTEM (SKIN)) was “active; positive”; the carcinogen call (Species: RAT, Strain/Sex: F344/FEMALE, Route: ORAL, Dose: 0, 7, 15, 30 PPM IN DIET, Dose: 0, 7, 15, 30 PPM IN DIET, Tumor Site: Type of Lesion: LIVER: HEPATOCELLULAR CARCINOMA OR ADENOMA (NOS), ANGIOSARCOMA, HEMATOPOIETIC SYSTEM (LEUKEMIA), LYMPHATIC SYSTEM: LYMPH, Tumor Site: Type of Lesion: LIVER: HEPATOCELLULAR CARCINOMA OR ADENOMA (NOS), ANGIOSARCOMA, HEMATOPOIETIC SYSTEM (LEUKEMIA), LYMPHATIC SYSTEM: LYMPH) is “active; positive”; the carcinogen call (Species: RAT, Strain/Sex: F344/MALE, Route: ORAL, Dose: 0, 7, 15, 30 PPM IN DIET, Dose: 0, 7, 15, 30 PPM IN DIET, Tumor Site: Type of Lesion: LIVER: HEPATOCELLULAR CARCINOMA OR ADENOMA (NOS), ANGIOSARCOMA) is “active; positive”.
